{
  "source": "patent US20230309833A1",
  "about": "“METHODS AND MATERIALS FOR USING [18F]-F-ARAG IN CARDIAC IMAGING” (CELLSIGHT TECHNOLOGIES INC., priority 2020, published 2023)",
  "key": {"[1]": {"test_system": "CCRF-CEM cells", "test": "Competition of cold 2F-AraG with 8-[3H]-AraG uptake, CCRF-CEM", "type": "cell-based", "settings": "increasing 2F-AraG 1-100 µM, 60 or 120 minutes", "method": "FIG. 2.3A illustrates a graph of 5 × 10^5CCRF-CEM cells were incubated, in triplicate, with 1uCi 8H^3-AraG (1mCi/ml) and increasing amounts of cold 2F-AraG or DMSO for either 60 or 120 minutes. Percent of control uptake was calculated as: measured cpm of sample/ cpm accumulated 1uCi 8[H^3]-AraG control x 100.\nPreviously we successfully synthesized a novel ^18F derivative of 2-deoxyguanosine analog, 9-β-D-arabinofuranosylguanine (“^18F-AraG” or “[^18F]F—AraG)”, to use as a molecular probe (FIG. 2.1). [^18F]AraG cell uptake was evaluated in leukemia cell line, CCRF-CEM, and was compared with [^3H]AraG cell uptake. […] To determine whether cold derivative 2F-AraG competes with the uptake of 8-[^3H]—AraG, we studied the [^3H]-Arag uptakes by CCRF-CEM, MOLT-4 (Leukemia cell line) and Raji (human Burkitt’s lymphoma cell line) and competition with cold 2F-AraG (FIGS. 2.3A and 2.3B). […] Competition assays indicate that cold derivative 2F-Arag competes with the uptake of the 8-[^3H]—AraG, indicating similar uptake pathways."}, "[2]": {"settings": "some patients; cited from earlier work"}, "[3]": {"test_system": "heart", "settings": "cited from earlier work"}, "[4]": {"target": "T1, deoxyguanosine kinase (dGK) (Homo sapiens, UniProt Q16854)", "T1 sequence (Q16854 40-277)": "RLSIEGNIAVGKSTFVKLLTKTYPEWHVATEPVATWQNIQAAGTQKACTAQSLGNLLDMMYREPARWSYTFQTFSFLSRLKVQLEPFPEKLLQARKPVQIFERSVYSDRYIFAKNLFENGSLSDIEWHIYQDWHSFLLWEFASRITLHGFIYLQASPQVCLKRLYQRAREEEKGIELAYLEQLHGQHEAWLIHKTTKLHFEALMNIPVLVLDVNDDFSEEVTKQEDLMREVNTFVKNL", "test": "Enzyme kinetics of dGK", "type": "biochemical", "settings": "dGuo positive control, unit not given", "excerpt": "[…]. Lines indicate best fit. […]. Lines indicate best fit. […]."}, "[5]": {"test_system": "colon cancer model", "type": "in vivo, mice", "settings": "tumors and tumor draining lymph nodes", "excerpt": "FIGS. 13A-13D show data from embodiments of the invention. FIG. 13A. […] FIG. 13B. […] White circles indicate tumor draining lymph nodes, yellow arrows point to tumors. FIG. 13C.\nThe discovery of the immune response that results from chemotherapy-induced tumor cell death, termed immunogenic cell death (32), has sparked interest in harnessing chemotherapy’s immunomodulatory effects for possible synergistic combinations with immunotherapeutics (33,34)."}, "[6]": {"substrate": "Nc1nc2c(ncn2[C@H]2C[C@H](O)[C@@H](CO)O2)c(=O)[nH]1", "test": "purified protein, by the assay type", "settings": "other: dGuo positive control, unit inferred"}},
  "data": [
    {"molecule": "Nc1nc2c(ncn2[C@@H]2O[C@H](CO)[C@@H](O)[C@@H]2F)c(=O)[nH]1", "note": "[2F-AraG, 2′-Deoxy-2′-fluoro-9-β-D-arabinofuranosylguanine]", "values": [
      {"measurement": "Effect on [3H]-AraG uptake", "setting": "[1]", "value": "decrease"}
    ]},
    {"molecule": "Nc1nc2c(ncn2[C@@H]2O[C@H](CO)[C@@H](O)[C@@H]2O)c(=O)[nH]1", "note": "[AraG, 9-(β—D—Arabinofuranosyl)guanine]", "values": [
      {"measurement": "Therapeutic serum level at which neurotoxic side effects are reported", "setting": "[2]", "value": "~ 150 µM"}
    ]},
    {"molecule": "CC(C)Oc1cccc(C=NCC(C)(C)CNCCNCC(C)(C)CN=Cc2cccc(OC(C)C)c2[O-])c1[O-].[68Ga+3].[I-]", "note": "[^68Ga-Galmydar]", "values": [
      {"measurement": "Cardiac uptake of tracer in doxorubicin treated animals", "setting": "[3]; preclinical studies", "value": "reduction in cardiac uptake"}
    ]},
    {"molecule": "Nc1nc2c(ncn2[C@H]2C[C@H](O)[C@@H](CO)O2)c(=O)[nH]1", "note": "[dGuo, 2′-deoxyguanosine]", "values": [
      {"measurement": "Vmax of dGK", "setting": "[4]", "value": 123.2}
    ]},
    {"molecule": "COc1cccc2c1C(=O)c1c(O)c3c(c(O)c1C2=O)C[C@@](O)(C(=O)CO)C[C@@H]3O[C@H]1C[C@H](N)[C@H](O)[C@H](C)O1", "note": "[doxorubicin]", "values": [
      {"measurement": "Effect of treatment on 18FDG uptake in the heart", "setting": "[3]; in vivo", "value": "increase"}
    ]},
    {"molecule": "Paclitaxel/carboplatin", "values": [
      {"measurement": "Change in [18F]F-AraG signal intensity after treatment", "setting": "[5]", "value": "did not lead to appreciable changes"}
    ]},
    {"molecule": "deoxyguanosine kinase (dGK) (Homo sapiens) (protein) RLSIEGNIAVGKSTFVKLLTKTYPEWHVATEPVATWQNIQAAGTQKACTAQSLGNLLDMMYREPARWSYTFQTFSFLSRLKVQLEPFPEKLLQARKPVQIFERSVYSDRYIFAKNLFENGSLSDIEWHIYQDWHSFLLWEFASRITLHGFIYLQASPQVCLKRLYQRAREEEKGIELAYLEQLHGQHEAWLIHKTTKLHFEALMNIPVLVLDVNDDFSEEVTKQEDLMREVNTFVKNL", "values": [
      {"measurement": "Km", "setting": "[6]", "value": 5.08, "unit": "µM"}
    ]}
  ]
}
